Source: US8541588B2, “Sulfonamide derivatives” (Pfizer Limited, priority 2009, dated 2013)

The compounds below were run against T1, Nav1.7 (or SCN9A) channel; HEK cells stably transfected with hSCN9A (Homo sapiens, UniProt Q15858) (assay: Nav1.7 block, PatchXpress 7000 automated whole-cell voltage clamp, estimated IC50 (EIC50)). Conditions: PatchXpress platform; hSCN9A HEK cells held at V1/2 of inactivation; estimated IC50.
T1 construct: expressed in transfected cells
Format: cell-based

T1 sequence (Q15858 whole entry): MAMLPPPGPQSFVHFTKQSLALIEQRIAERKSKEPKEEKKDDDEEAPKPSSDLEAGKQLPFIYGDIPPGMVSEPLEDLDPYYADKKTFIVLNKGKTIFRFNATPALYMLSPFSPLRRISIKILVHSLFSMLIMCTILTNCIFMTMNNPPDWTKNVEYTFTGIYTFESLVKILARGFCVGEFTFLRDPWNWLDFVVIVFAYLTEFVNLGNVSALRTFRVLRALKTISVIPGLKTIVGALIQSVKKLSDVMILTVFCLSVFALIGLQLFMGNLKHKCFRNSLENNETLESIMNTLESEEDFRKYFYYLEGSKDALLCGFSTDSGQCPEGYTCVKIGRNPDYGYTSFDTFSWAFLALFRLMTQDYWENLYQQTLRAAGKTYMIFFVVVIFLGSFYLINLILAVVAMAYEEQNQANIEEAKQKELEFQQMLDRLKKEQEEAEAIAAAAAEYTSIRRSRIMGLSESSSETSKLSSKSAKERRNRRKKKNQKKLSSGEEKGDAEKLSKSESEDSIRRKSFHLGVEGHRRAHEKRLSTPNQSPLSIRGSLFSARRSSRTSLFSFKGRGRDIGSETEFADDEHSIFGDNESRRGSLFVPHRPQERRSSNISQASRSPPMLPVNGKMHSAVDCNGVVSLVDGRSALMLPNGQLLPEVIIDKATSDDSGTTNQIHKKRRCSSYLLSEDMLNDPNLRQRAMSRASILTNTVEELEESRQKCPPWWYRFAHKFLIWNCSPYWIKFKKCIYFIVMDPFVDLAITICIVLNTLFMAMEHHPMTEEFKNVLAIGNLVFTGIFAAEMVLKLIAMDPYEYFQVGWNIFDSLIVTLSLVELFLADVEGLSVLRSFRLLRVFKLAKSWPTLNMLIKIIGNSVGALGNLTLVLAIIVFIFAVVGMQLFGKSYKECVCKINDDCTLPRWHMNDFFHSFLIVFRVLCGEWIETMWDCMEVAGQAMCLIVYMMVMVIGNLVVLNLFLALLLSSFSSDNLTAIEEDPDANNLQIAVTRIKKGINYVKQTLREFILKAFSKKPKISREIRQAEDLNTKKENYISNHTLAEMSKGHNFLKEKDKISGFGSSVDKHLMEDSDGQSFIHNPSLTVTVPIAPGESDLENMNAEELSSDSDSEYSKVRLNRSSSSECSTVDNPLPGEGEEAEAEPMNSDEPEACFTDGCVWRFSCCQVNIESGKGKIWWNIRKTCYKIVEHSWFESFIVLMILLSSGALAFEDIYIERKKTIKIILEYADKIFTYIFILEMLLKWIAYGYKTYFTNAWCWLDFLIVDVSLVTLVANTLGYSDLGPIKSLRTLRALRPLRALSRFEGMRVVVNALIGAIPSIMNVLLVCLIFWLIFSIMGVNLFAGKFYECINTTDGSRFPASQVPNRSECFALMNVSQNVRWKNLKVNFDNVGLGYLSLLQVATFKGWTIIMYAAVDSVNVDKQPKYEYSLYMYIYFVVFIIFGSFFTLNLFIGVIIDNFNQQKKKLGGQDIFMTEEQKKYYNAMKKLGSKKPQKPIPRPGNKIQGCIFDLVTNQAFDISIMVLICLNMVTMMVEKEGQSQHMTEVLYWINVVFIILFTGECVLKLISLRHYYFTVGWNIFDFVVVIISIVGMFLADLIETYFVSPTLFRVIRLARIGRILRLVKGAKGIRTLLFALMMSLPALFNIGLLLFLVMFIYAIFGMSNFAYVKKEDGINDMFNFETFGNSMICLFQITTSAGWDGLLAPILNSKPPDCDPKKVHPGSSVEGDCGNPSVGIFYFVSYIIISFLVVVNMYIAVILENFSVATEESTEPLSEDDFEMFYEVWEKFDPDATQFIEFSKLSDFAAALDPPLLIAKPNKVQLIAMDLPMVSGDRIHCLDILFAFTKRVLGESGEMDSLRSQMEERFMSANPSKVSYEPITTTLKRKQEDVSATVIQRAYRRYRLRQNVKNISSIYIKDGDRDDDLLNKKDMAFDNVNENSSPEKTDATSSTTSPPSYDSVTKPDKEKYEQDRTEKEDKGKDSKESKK

Compared with `COc1ccc(-n2cc(Oc3ccc(S(=O)(=O)Nc4ncns4)cc3C#N)c(C(C)C)n2)cc1` [Example 65, 3-cyano-4-{[3-isopropyl-1-(4-methoxyphenyl)-1H-pyrazol-4-yl]oxy}-N-1,2,4-thiadiazol-5-ylbenzenesulfonamide], `Cn1nccc1-c1cc(CO)ccc1Oc1ccc(S(=O)(=O)Nc2ncns2)cc1C#N` [Example 91, 3-cyano-4-(4-(hydroxymethyl)-2-(1-methyl-1H-pyrazol-5-yl)phenoxy)-N-(1,2,4-thiadiazol-5-yl)benzenesulfonamide] is 11-fold lower in IC50: 12200 nM for the first, 1120 nM for the second. The second is the more potent here.

First: Cn1nc(C(F)(F)F)cc1-c1ccc(Oc2ccc(S(=O)(=O)Nc3nccs3)cc2C#N)cc1 [Example 282, 3-cyano-4-[4-(2-methyl-5-trifluoromethyl-2H-pyrazol-3-yl)-phenoxy]-N-thiazol-2-yl-benzenesulfonamide]
Second: CC(C)(C)n1nc(C(F)(F)F)cc1-c1ccc(Oc2ccc(S(=O)(=O)Nc3nccs3)cc2F)cc1 [Example 245, 4-[4-(2-tert-butyl-5-trifluoromethyl-2H-pyrazol-3-yl)-phenoxy]-3-fluoro-N-thiazol-2-yl-benzenesulfonamide]
The IC50 of the first is 5.8-fold lower: 180 nM for the first, 1040 nM for the second. The first is the more potent here.

Compared with `N#Cc1cc(S(=O)(=O)Nc2nccs2)ccc1Oc1ccc(-c2cc[nH]n2)cc1F` [Example 185, 3-cyano-4-[2-fluoro-4-(1H-pyrazol-3-yl)-phenoxy]-N-thiazol-2-yl-benzenesulfonamide], `COCc1ccc(-c2cc(F)ccc2Oc2ccc(S(=O)(=O)Nc3nccs3)cc2C#N)cc1` [Example 163, 3-cyano-4-{[5-fluoro-4′-(methoxymethyl)biphenyl-2-yl]oxy}-N-1,3-thiazol-2-ylbenzenesulfonamide] is 80-fold lower in IC50: 33000 nM for the first, 410 nM for the second. The second is the more potent here.

`O=S(=O)(Nc1nccs1)c1ccc(Oc2cc(Cc3ccc(Cl)cc3)n[nH]2)c(F)c1` [Example 243, 4-(3-(4-chlorobenzyl)-1H-pyrazol-5-yloxy)-3-fluoro-N-(thiazol-2-yl)benzenesulfonamide] and `O=S(=O)(Nc1nccs1)c1ccc(Oc2ccc(-c3cc(C(F)(F)F)n[nH]3)cc2)c(F)c1` [Example 246, 3-fluoro-N-(thiazol-2-yl)-4-(4-(3-(trifluoromethyl)-1H-pyrazol-5-yl)phenoxy)benzenesulfonamide] are within 1.5-fold of each other in IC50: 3860 nM for the first, 3760 nM for the second.

Compound `N#Cc1cc(S(=O)(=O)Nc2nccs2)ccc1Oc1ccccc1-c1ccccc1` [Example 165, 4-(biphenyl-2-yloxy)-3-cyano-N-(thiazol-2-yl)benzenesulfonamide] has an IC50 of 50 nM.

Work on `CC(C)(C)n1ccc(-c2c(F)cccc2Oc2ccc(S(=O)(=O)Nc3ncns3)cc2C#N)n1` [Example 84, 4-[2-(1-tert-Butyl-1H-pyrazol-3-yl)-3-fluoro-phenoxy]-3-cyano-N-[1,2,4]thiadiazol-5-yl-benzene-sulfonamide] yielded an IC50 greater than 10000 nM.

Same assay, conditions: estimated IC50; hSCN9A HEK cells, PatchXpress platform; Examples 283-814

Compared with `N#Cc1cc(S(=O)(=O)Nc2ncc(Cl)s2)ccc1Oc1ccc(F)cc1-c1ccnc(N)c1` [Example 584, 4-[2-(2-Aminopyridin-4-yl)-4-fluorophenoxy]-N-(5-chloro-1,3-thiazol-2-yl)-3-cyanobenzenesulfonamide], `N#Cc1cc(S(=O)(=O)Nc2ncc(Cl)s2)ccc1Oc1ccc(C(F)(F)F)cc1-c1cn[nH]c1` [Example 590, N-(5-Chloro-1,3-thiazol-2-yl)-3-cyano-4-[2-(1H-pyrazol-4-yl)-4-(trifluoromethyl)phenoxy]benzenesulfonamide] is 1.8-fold lower in IC50: 97 nM for the first, 53 nM for the second.

`Cc1cccnc1-c1ccc(Oc2ccc(S(=O)(=O)Nc3nccs3)cc2C#N)cc1` [Example 455, 3-cyano-4-[4-(3-methylpyridin-2-yl)phenoxy]-N-1,3-thiazol-2-ylbenzenesulfonamide] and `N#Cc1cc(S(=O)(=O)Nc2nccs2)ccc1Oc1ccc(-c2ccccc2)nc1` [Example 646, 3-cyano-4-[(6-phenylpyridin-3-yl)oxy]-N-1,3-thiazol-2-ylbenzenesulfonamide] are within 1.5-fold of each other in IC50: 2300 nM for the first, 2800 nM for the second.

Compared with `Cn1nccc1-c1cc(F)ccc1Oc1cc(F)c(S(=O)(=O)Nc2cscn2)cc1Br` [Example 625, 5-bromo-2-fluoro-4-[4-fluoro-2-(1-methyl-1H-pyrazol-5-yl)phenoxy]-N-1,3-thiazol-4-ylbenzenesulfonamide], `Cn1nccc1-c1cc(F)ccc1Oc1ccc(S(=O)(=O)Nc2ncc(F)s2)cc1F` [Example 347, 3-fluoro-4-[4-fluoro-2-(1-methyl-1H-pyrazol-5-yl)phenoxy]-N-(5-fluoro-1,3-thiazol-2-yl)benzenesulfonamide] is 17-fold higher in IC50: 18 nM for the first, 300 nM for the second.

Compared with `Cn1nccc1-c1cc(Br)ccc1Oc1ccc(S(=O)(=O)Nc2ncns2)cc1C(N)=O` [Example 735, 2-[4-bromo-2-(1-methyl-1H-pyrazol-5-yl)phenoxy]-5-[(1,2,4-thiadiazol-5-ylamino)sulfonyl]benzamide], `N#Cc1cc(S(=O)(=O)Nc2ncns2)ccc1Oc1ccc(Br)cc1-c1cn[nH]c1` [Example 503, 4-[Bromo-2-(1H-pyrazol-4-yl)phenoxy]-3-cyano-N-1,2,4-thiadiazol-5-ylbenzenesulfonamide] is 140-fold lower in IC50: 1000 nM for the first, 7 nM for the second.

`O=S(=O)(Nc1ncns1)c1cc(F)c(Oc2ccc(Cl)cc2-c2ccn[nH]2)cc1F` [Example 637, 4-[4-Chloro-2-(1H-pyrazol-5-yl)phenoxy]-2,5-difluoro-N-1,2,4-thiadiazol-5-ylbenzenesulfonamide] and `O=S(=O)(Nc1ncc(F)s1)c1cc(F)c(Oc2ccc(Cl)cc2-c2cn[nH]c2)cc1F` [Example 683, 4-[4-chloro-2-(1H-pyrazol-4-yl)phenoxy]-2,5-difluoro-N-(5-fluoro-1,3-thiazol-2-yl)benzenesulfonamide] are within 1.5-fold of each other in IC50: 16 nM for the first, 22 nM for the second.

Going from `O=S(=O)(Nc1ncns1)c1cc(Cl)c(Oc2ccc(OC(F)F)cc2C2CCNCC2)cc1F` [Example 412, 5-chloro-4-[4-(difluoromethoxy)-2-piperidin-4-ylphenoxy]-2-fluoro-N-1,2,4-thiadiazol-5-ylbenzenesulfonamide] to `CN1CC(n2nccc2-c2cc(F)ccc2Oc2cc(F)c(S(=O)(=O)Nc3ncns3)cc2Cl)C1` [Example 806, 5-Chloro-2-fluoro-4-{4-fluoro-2-[1-(1-methylazetidin-3-yl)-1H-pyrazol-5-yl]phenoxy}-N-1,2,4-thiadiazol-5-ylbenzenesulfonamide], the IC50 rises from 2.5 nM to 5.4 nM (2.2-fold).

Compared with `Cn1nc(C(F)(F)F)cc1-c1cc(F)cc(Oc2ccc(S(=O)(=O)Nc3nccs3)cc2C#N)c1` [Example 653, 3-cyano-4-{3-fluoro-5-[1-methyl-3-(trifluoromethyl)-1H-pyrazol-5-yl]phenoxy}-N-1,3-thiazol-2-ylbenzenesulfonamide], `Cn1nccc1-c1ccc(Cl)cc1Oc1ccc(S(=O)(=O)Nc2nccs2)cc1C#N` [Example 544, 4-[5-chloro-2-(1-methyl-1H-pyrazol-5-yl)phenoxy]-3-cyano-N-1,3-thiazol-2-ylbenzenesulfonamide] is 50-fold lower in IC50: 1100 nM for the first, 22 nM for the second.

First: CCn1nc(C(F)(F)F)cc1-c1ccc(Oc2ncc(S(=O)(=O)Nc3nccs3)cc2Cl)cc1 [Example 758, 5-chloro-6-{4-[1-ethyl-3-(trifluoromethyl)-1H-pyrazol-5-yl]phenoxy}-N-1,3-thiazol-2-ylpyridine-3-sulfonamide]
Second: N#Cc1cc(S(=O)(=O)Nc2nccs2)ccc1Oc1ccc(Cl)cc1-n1cnnn1 [Example 416, 4-(4-chloro-2-(1H-tetrazol-1-yl)phenoxy)-3-cyano-N-(thiazol-2-yl)benzenesulfonamide]
The IC50 of the first is 7.6-fold lower: 210 nM for the first, 1600 nM for the second.

Going from `O=S(=O)(Nc1ncns1)c1cc(F)c(Oc2ccc(C(F)(F)F)cc2-c2cnccn2)cc1F` [Example 632, 2,5-difluoro-4-[2-pyrazin-2-yl-4-(trifluoromethyl)phenoxy]-N-1,2,4-thiadiazol-5-ylbenzenesulfonamide] to `N#Cc1cc(S(=O)(=O)Nc2ncns2)ccc1Oc1ccc(F)cc1-c1ccn[nH]1` [Example 499, 3-cyano-4-[4-fluoro-2-(1H-pyrazol-5-yl)phenoxy]-N-1,2,4-thiadiazol-5-ylbenzenesulfonamide], the IC50 rises from 100 nM to 190 nM (1.9-fold). The first is the more potent here.

Compared with `N#Cc1cc(S(=O)(=O)Nc2ccc(F)cn2)ccc1Oc1ccccc1-c1nnco1` [Example 580, 3-cyano-N-(5-fluoropyridin-2-yl)-4-[2-(1,3,4-oxadiazol-2-yl)phenoxy]benzenesulfonamide], `Cn1nccc1-c1cc(Cl)ccc1Oc1ccc(S(=O)(=O)Nc2ncc(F)cn2)cc1C#N` [Example 465, 4-[4-chloro-2-(1-methyl-1H-pyrazol-5-yl)phenoxy]-3-cyano-N-(5-fluoropyrimidin-2-yl)benzenesulfonamide] is 6.9-fold lower in IC50: 6900 nM for the first, 1000 nM for the second.

`Cn1cnc(-c2cc(Cl)ccc2Oc2ccc(S(=O)(=O)Nc3nccs3)cc2C#N)n1` [Example 325, 4-[4-chloro-2-(1-methyl-1H-1,2,4-triazol-3-yl)phenoxy]-3-cyano-N-1,3-thiazol-2-ylbenzenesulfonamide] was tested, and the IC50 was greater than 300 nM.
`N#Cc1cc(S(=O)(=O)Nc2cscn2)ccc1Oc1ccc(Cl)cc1-n1cnc(C(F)(F)F)c1` [Example 397, 4-{4-chloro-2-[4-(trifluoromethyl)-1H-imidazol-1-yl]phenoxy}-3-cyano-N-1,3-thiazol-4-ylbenzenesulfonamide] was tested, and the IC50 was greater than 1000 nM.

Same assay, conditions: estimated IC50; hSCN9A HEK cells, PatchXpress platform; Examples 815-1040

`N#Cc1cc(S(=O)(=O)Nc2nccs2)ccc1Oc1ccccc1-c1cncnc1` [Example 985, 3-cyano-4-(2-pyrimidin-5-ylphenoxy)-N-1,3-thiazol-2-ylbenzenesulfonamide] and `Cn1nccc1-c1cc(Cl)ccc1Oc1ccc(S(=O)(=O)Nc2ncns2)cn1` [Example 950, 6-[4-chloro-2-(1-methyl-1H-pyrazol-5-yl)phenoxy]-N-1,2,4-thiadiazol-5-ylpyridine-3-sulfonamide] are within 1.5-fold of each other in IC50: 2300 nM for the first, 2700 nM for the second.

With `CN1CC(n2nccc2-c2cc(Cl)ccc2Oc2cc(F)c(S(=O)(=O)Nc3ncccn3)cc2Cl)C1` [Example 1012, 5-chloro-4-{4-chloro-2-[1-(1-methylazetidin-3-yl)-1H-pyrazol-5-yl]phenoxy}-2-fluoro-N-pyrimidin-2-ylbenzenesulfonamide] the IC50 was 270 nM.
